Test results taken from patent US11884647B2, “Compounds and methods for targeting pathogenic blood vessels” (THE REGENTS OF THE UNIVERSITY OF CALIFORNIA, priority 2019, dated 2024).

system: tumor endothelial cells (LL/2 lung cancer tumor); assay: Lung LL2 ex vivo model of tumor angiogenesis; format: cell-based, mouse; settings: Lung LL2 ex vivo; Conc. 20 μm; (24 hrs)
Method in brief: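 Mouse LL2 tumor fragments (~0.5×0.5×0.3 mm) embedded in Matrigel and grown in endothelial growth medium at 37° C until endothelial outgrowth (about 4 days) before drug treatment. About 48 h after drug addition, stained 10 min with fluorescein diacetate/propidium iodide; live (green) and dead (red) cells imaged at 2× with fixed channel settings.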

First: CCCCCCCCCCOc1ccc(S(=O)(=O)c2cnc3ccc([S+](C)[O-])cc3c2N2CCC(N3CCC(N4CCOCC4)CC3)CC2)cc1 (centres unmarked) [compound 286, 4-(1′-(3-((4-(decyloxy)phenyl)sulfonyl)-6-(methylsulfinyl)quinolin-4-yl)-[1,4′-bipiperidin]-4-yl)morpholine]
Second: CCCCCCCCCCOc1ccc(S(=O)(=O)c2cnc3ccc([S+](C)[O-])cc3c2N2CCC(N3CCC(N4CCCN(C)CC4)CC3)CC2)cc1 (centres unmarked) [compound 287, 3-((4-(decyloxy)phenyl)sulfonyl)-4-(4-(4-methyl-1,4-diazepan-1-yl)-[1,4′-bipiperidin]-1′-yl)-6-(methylsulfinyl)quinoline]
The “Cell death (24 hrs)” value of the first is lower: 0% for the first, 40% for the second.

With `CCCCCCCCCCOc1ccc(S(=O)(=O)c2cnc3ccc([S+](C)[O-])cc3c2N2CCC(N3CCC(N4CCOCC4)CC3)CC2)cc1` (centres unmarked) [compound 286, 4-(1′-(3-((4-(decyloxy)phenyl)sulfonyl)-6-(methylsulfinyl)quinolin-4-yl)-[1,4′-bipiperidin]-4-yl)morpholine] the “Morphology observations (24 hrs)” value was 0.

`CCCCCCCCCCOc1ccc(S(=O)(=O)c2cnc3ccc([S+](C)[O-])cc3c2N2CCC(N3CCC(N4CCCN(C)CC4)CC3)CC2)cc1` (centres unmarked) [compound 287, 3-((4-(decyloxy)phenyl)sulfonyl)-4-(4-(4-methyl-1,4-diazepan-1-yl)-[1,4′-bipiperidin]-1′-yl)-6-(methylsulfinyl)quinoline] was tested, and the “Morphology observations (24 hrs)” value was “* (50% or less of cells vesicularize in cell shape)”.

same assay, conditions: Lung LL2 ex vivo; Conc. 20 μm; drug treatment two days

`CCCCCCCOc1ccc(S(=O)(=O)c2cnc3ccc(SC)cc3c2N2CCN(C3CCN(C)CC3)CC2)cc1` [compound 273, 3-((4-(heptyloxy)phenyl)sulfonyl)-4-(4-(1-methylpiperidin-4-yl)piperazin-1-yl)-6-(methylthio)quinoline] showed a Cell death of 60%.

same assay, conditions: Mus musculus, Endothelial cell, 48 h, read-out: Cell death

Going from `CCCCCCCOc1ccc(S(=O)(=O)c2cnc3ccc([S+](C)[O-])cc3c2N2CCC(N3CCC(O)(c4ccccc4)CC3)CC2)cc1` (centres unmarked) [compound 263, 1′-(3-((4-(heptyloxy)phenyl)sulfonyl)-6-(methylsulfinyl)quinolin-4-yl)-4-phenyl-[1,4′-bipiperidin]-4-ol] to `CCCCCCCOc1ccc(S(=O)(=O)c2cnc3ccc([S+](C)[O-])cc3c2N2CCN(C3CCN(Cc4ccccc4)C3)CC2)cc1` (centres unmarked) [compound 278, 4-(4-(1-benzylpyrrolidin-3-yl)piperazin-1-yl)-3-((4-(heptyloxy)phenyl)sulfonyl)-6-(methylsulfinyl)quinoline], the cytotoxicity at 10 µM falls from 100% to 50%.

First: CCCCCCCCCCOc1ccc(S(=O)(=O)c2cnc3ccc([S+](C)[O-])cc3c2N2CCC(N3CCN(C)CC3)CC2)cc1 (centres unmarked) [compound 264, 3-((4-(decyloxy)phenyl)sulfonyl)-4-(4-(4-methylpiperazin-1-yl)piperidin-1-yl)-6-(methylsulfinyl)quinoline]
Second: CCCCCCCCCCOc1ccc(S(=O)(=O)c2cnc3ccc([S+](C)[O-])cc3c2N2CCC(N3CCCN(C)CC3)CC2)cc1 (centres unmarked) [compound 267, 3-((4-(decyloxy)phenyl)sulfonyl)-4-(4-(4-methyl-1,4-diazepan-1-yl)piperidin-1-yl)-6-(methylsulfinyl)quinoline]
The cytotoxicity at 10 µM of the first is higher: 20% for the first, 5% for the second.

First: CCCCCCCCCCOc1ccc(S(=O)(=O)c2cnc3ccc([S+](C)[O-])cc3c2N2CCC(N3CCCC(O)C3)CC2)cc1 (centres unmarked) [compound 265, 1′-(3-((4-(decyloxy)phenyl)sulfonyl)-6-(methylsulfinyl)quinolin-4-yl)-[1,4′-bipiperidin]-3-ol]
Second: CCCCCCCCCCOc1ccc(S(=O)(=O)c2cnc3ccc([S+](C)[O-])cc3c2N2CCC(N3CCC(N4CCN(C)CC4)CC3)CC2)cc1 (centres unmarked) [compound 285, 3-((4-(decyloxy)phenyl)sulfonyl)-4-(4-(4-methylpiperazin-1-yl)-[1,4′-bipiperidin]-1′-yl)-6-(methylsulfinyl)quinoline]
The cytotoxicity at 10 µM of the first is lower: 20% for the first, 60% for the second.

Going from `CCCCCCCCCCOc1ccc(S(=O)(=O)c2cnc3ccc([S+](C)[O-])cc3c2N2CCCN(CCN3CCCCC3)CC2)cc1` (centres unmarked) [compound 266, 3-((4-(decyloxy)phenyl)sulfonyl)-6-(methylsulfinyl)-4-(4-(2-(piperidin-1-yl)ethyl)-1,4-diazepan-1-yl)quinoline] to `CCCCCCCOc1ccc(S(=O)(=O)c2cnc3ccc([S+](C)[O-])cc3c2N2CCN(CCN3CCCCC3)CC2)cc1` (centres unmarked) [compound 282, 3-((4-(heptyloxy)phenyl)sulfonyl)-6-(methylsulfinyl)-4-(4-(2-(piperidin-1-yl)ethyl)piperazin-1-yl)quinoline], the cytotoxicity at 10 µM rises from 5% to 10%.

With `CC(C)CCCC(C)CCOc1ccc(S(=O)(=O)c2cnc3ccc([S+](C)[O-])cc3c2N2CCC(N3CCN(CCO)CC3)CC2)cc1` (centres unmarked) [compound 284, 2-(4-(1-(3-((4-((3,7-dimethyloctyl)oxy)phenyl)sulfonyl)-6-(methylsulfinyl)quinolin-4-yl)piperidin-4-yl)piperazin-1-yl)ethan-1-ol] the cytotoxicity at 10 µM was 10%.

Going from `CCCCCCCCCCOc1ccc(S(=O)(=O)c2cnc3ccc([S+](C)[O-])cc3c2N2CCC(N3CCN(CCO)CC3)CC2)cc1` (centres unmarked) [compound 268, 2-(4-(1-(3-((4-(decyloxy)phenyl)sulfonyl)-6-(methylsulfinyl)quinolin-4-yl)piperidin-4-yl)piperazin-1-yl)ethan-1-ol] to `CCCCCCCCCCOc1ccc(S(=O)(=O)c2cnc3ccc([S+](C)[O-])cc3c2N2CCC(N3CCC(N4CCCCC4)CC3)CC2)cc1` (centres unmarked) [compound 269, 4-([1,4′:1′,4″-terpiperidin]-1″-yl)-3-((4-(decyloxy)phenyl)sulfonyl)-6-(methylsulfinyl)quinoline], the cytotoxicity at 20 µM rises from 50% to 100%.

Going from `CCCCCCCCCCOc1ccc(S(=O)(=O)c2cnc3ccc([S+](C)[O-])cc3c2N2CCC(N3CCC(O)(c4ccccc4)CC3)CC2)cc1` (centres unmarked) [compound 270, 1′-(3-((4-(decyloxy)phenyl)sulfonyl)-6-(methylsulfinyl)quinolin-4-yl)-4-phenyl-[1,4′-bipiperidin]-4-ol] to `CCCCCCCOc1ccc(S(=O)(=O)c2cnc3ccc([S+](C)[O-])cc3c2N2CCN(CC3CCN(Cc4ccccc4)CC3)CC2)cc1` (centres unmarked) [compound 279, 4-(4-((1-benzylpiperidin-4-yl)methyl)piperazin-1-yl)-3-((4-(heptyloxy)phenyl)sulfonyl)-6-(methylsulfinyl)quinoline], the cytotoxicity at 20 µM rises from 50% to 100%.

Going from `CCCCCCCOc1ccc(S(=O)(=O)c2cnc3ccc(SC)cc3c2N2CCN(CCN3CCCC3)CC2)cc1` [compound 272, 3-((4-(heptyloxy)phenyl)sulfonyl)-6-(methylthio)-4-(4-(2-(pyrrolidin-1-yl)ethyl)piperazin-1-yl)quinoline] to `CCCCCCCOc1ccc(S(=O)(=O)c2cnc3ccc(SC)cc3c2N2CCN(CCN3CCCCC3)CC2)cc1` [compound 281, 3-((4-(heptyloxy)phenyl)sulfonyl)-6-(methylthio)-4-(4-(2-(piperidin-1-yl)ethyl)piperazin-1-yl)quinoline], the cytotoxicity at 20 µM rises from 20% to 50%.

Compared with `CCCCCCCOc1ccc(S(=O)(=O)c2cnc3ccc(SC)cc3c2N2CCN(C3CCN(Cc4ccccc4)C3)CC2)cc1` (centres unmarked) [compound 274, 4-(4-(1-benzylpyrrolidin-3-yl)piperazin-1-yl)-3-((4-(heptyloxy)phenyl)sulfonyl)-6-(methylthio)quinoline], `CCCCCCCOc1ccc(S(=O)(=O)c2cnc3ccc(SC)cc3c2N2CCN(CC3CCN(Cc4ccccc4)CC3)CC2)cc1` [compound 275, 4-(4-((1-benzylpiperidin-4-yl)methyl)piperazin-1-yl)-3-((4-(heptyloxy)phenyl)sulfonyl)-6-(methylthio)quinoline] is lower in cytotoxicity at 20 µM: 10% for the first, 5% for the second.

`CCCCCCCOc1ccc(S(=O)(=O)c2cnc3ccc([S+](C)[O-])cc3c2N2CCN(CCN3CCCC3)CC2)cc1` (centres unmarked) [compound 276, 3-((4-(heptyloxy)phenyl)sulfonyl)-6-(methylsulfinyl)-4-(4-(2-(pyrrolidin-1-yl)ethyl)piperazin-1-yl)quinoline] was tested, and the cytotoxicity at 20 µM was 100%.
